Data published in patent publication US9309242B2, “Substituted pyrido[2,3-b]pyrazines as FGFR kinase inhibitors” (priority 2011, dated 2016).
Like-named read-outs stand apart in the source and are kept apart here.

Tests used:
[1] = target: T1, Ba/F3-FGFR3-transfected cells (Homo sapiens, UniProt P22607); experiment: Ba/F3-FGFR3 (minus IL3) cellular proliferation assay, Alamar Blue; type: cell-based
T1 construct: BAF3-FGFR3 (MIN IL3) pIC50; other: minus IL3
Procedure, shortened: (§1)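 Compound dilutions were dispensed first, then 20000 FGFR3-transfected Ba/F3 cells per well in serum-containing RPMI-1640 were added. After 24 h incubation at 37° C, Alamar Blue was applied for 4 h before relative fluorescence units were recorded. In the minus-IL3 format cells grow without cytokine; the other format contains 10 ng/ml murine IL3.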

[2] = target: T2, Ba/F3-KDR-transfected cells (Homo sapiens, UniProt P35968); experiment: Ba/F3-KDR (minus IL3) cellular proliferation assay, Alamar Blue; type: cell-based
T2 construct: BAF3-KDR (MIN IL3) pIC50; other: minus IL3
T2 sequence (P35968 whole entry, change not shown): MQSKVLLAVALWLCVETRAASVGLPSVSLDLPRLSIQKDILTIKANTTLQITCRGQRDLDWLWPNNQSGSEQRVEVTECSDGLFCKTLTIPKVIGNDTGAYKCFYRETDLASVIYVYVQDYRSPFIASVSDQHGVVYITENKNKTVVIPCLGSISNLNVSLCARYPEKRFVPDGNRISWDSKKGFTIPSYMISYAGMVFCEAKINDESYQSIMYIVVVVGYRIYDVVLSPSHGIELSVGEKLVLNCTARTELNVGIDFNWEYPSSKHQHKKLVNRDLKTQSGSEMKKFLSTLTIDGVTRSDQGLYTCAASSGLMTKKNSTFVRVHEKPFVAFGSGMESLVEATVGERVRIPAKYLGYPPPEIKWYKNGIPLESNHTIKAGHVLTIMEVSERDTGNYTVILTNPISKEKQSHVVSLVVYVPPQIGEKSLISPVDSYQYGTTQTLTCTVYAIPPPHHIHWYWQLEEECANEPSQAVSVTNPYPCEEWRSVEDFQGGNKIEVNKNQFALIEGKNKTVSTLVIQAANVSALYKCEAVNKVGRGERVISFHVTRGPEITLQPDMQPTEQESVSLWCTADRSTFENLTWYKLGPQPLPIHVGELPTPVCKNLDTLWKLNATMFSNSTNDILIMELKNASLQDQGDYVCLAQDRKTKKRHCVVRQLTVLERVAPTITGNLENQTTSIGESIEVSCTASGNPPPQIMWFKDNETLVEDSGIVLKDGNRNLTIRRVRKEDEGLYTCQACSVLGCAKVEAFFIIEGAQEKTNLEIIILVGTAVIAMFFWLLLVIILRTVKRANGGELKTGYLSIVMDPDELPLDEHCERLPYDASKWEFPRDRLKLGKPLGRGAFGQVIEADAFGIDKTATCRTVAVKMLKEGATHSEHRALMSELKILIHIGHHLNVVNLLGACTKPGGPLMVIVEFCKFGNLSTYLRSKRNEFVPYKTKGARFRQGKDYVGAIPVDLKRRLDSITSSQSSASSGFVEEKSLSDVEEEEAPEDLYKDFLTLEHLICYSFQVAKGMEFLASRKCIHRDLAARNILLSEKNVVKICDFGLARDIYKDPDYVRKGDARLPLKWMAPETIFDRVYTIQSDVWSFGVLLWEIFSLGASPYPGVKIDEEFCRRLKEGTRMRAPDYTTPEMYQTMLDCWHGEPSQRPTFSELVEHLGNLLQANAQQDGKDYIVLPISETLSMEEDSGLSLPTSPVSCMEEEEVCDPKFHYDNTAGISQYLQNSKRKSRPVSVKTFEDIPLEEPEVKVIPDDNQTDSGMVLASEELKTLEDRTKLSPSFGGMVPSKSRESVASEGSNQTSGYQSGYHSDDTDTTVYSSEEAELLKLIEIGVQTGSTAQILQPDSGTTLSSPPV
Procedure, shortened: (§2)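 Cells grown with test compound at 37° C and 5% CO2 for 24 hours were given a resazurin/ferricyanide/ferrocyanide reagent for 4 hours before fluorescence (540/590 nm) was recorded.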

[3] = test system: Ba/F3-KDR-transfected cells; experiment: Ba/F3-KDR (plus IL3) cellular proliferation assay, counterscreen with 10 ng/ml murine IL3; type: cell-based; conditions: read-out: BAF3-KDR (PLUS IL3) pIC50 (converted)
Procedure, shortened: as §2

[4] = target: FGFR2 (h) (Homo sapiens, UniProt P21802); experiment: FGFR2 (enzymatic assay), TR-FRET; type: biochemical; conditions: enzymatic assay, read-out: FGFR 2 pIC50 (converted)
FGFR2 (h), sequence (P21802 22-821): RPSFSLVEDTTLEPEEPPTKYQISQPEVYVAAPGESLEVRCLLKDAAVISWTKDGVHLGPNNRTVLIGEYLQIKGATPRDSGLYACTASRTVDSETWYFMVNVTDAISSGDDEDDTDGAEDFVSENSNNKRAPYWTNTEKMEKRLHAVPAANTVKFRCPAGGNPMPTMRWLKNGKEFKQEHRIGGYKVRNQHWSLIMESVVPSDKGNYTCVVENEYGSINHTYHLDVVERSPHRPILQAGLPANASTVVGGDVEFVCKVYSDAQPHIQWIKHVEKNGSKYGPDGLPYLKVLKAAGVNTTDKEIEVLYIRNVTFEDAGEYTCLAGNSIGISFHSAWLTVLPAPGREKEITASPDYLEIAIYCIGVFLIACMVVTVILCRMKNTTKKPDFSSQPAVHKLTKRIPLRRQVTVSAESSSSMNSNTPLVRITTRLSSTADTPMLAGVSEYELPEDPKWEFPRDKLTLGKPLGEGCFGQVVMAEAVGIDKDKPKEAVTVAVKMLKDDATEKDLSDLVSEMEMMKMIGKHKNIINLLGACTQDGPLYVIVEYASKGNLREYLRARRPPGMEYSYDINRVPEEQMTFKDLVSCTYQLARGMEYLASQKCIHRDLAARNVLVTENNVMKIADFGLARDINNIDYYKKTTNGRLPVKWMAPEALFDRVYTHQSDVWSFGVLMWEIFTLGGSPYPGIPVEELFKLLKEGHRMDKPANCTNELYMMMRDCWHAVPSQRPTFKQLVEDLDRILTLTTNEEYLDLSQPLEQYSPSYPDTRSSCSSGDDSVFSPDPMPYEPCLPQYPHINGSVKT
Procedure, shortened: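 At low ATP (0.4 μM), enzyme activity of human FGFR2 (150 ng/ml) toward biotinylated Flt3 substrate (500 nM) was followed with test compound present. Reactions ran in 50 mM HEPES pH 7.5, 6 mM MnCl2, 1 mM DTT, 0.1 mM Na3VO4, 0.01% Triton-X-100, 1% DMSO.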

[5] = target: T3, Ba/F3-FGFR1-transfected cells (Homo sapiens, UniProt P11362); experiment: Ba/F3-FGFR1 (minus IL3) cellular proliferation assay, Alamar Blue; type: cell-based
T3 construct: BAF3-FGFR1 (MIN IL3) pIC50; other: minus IL3
T3 sequence (P11362 whole entry, change not shown): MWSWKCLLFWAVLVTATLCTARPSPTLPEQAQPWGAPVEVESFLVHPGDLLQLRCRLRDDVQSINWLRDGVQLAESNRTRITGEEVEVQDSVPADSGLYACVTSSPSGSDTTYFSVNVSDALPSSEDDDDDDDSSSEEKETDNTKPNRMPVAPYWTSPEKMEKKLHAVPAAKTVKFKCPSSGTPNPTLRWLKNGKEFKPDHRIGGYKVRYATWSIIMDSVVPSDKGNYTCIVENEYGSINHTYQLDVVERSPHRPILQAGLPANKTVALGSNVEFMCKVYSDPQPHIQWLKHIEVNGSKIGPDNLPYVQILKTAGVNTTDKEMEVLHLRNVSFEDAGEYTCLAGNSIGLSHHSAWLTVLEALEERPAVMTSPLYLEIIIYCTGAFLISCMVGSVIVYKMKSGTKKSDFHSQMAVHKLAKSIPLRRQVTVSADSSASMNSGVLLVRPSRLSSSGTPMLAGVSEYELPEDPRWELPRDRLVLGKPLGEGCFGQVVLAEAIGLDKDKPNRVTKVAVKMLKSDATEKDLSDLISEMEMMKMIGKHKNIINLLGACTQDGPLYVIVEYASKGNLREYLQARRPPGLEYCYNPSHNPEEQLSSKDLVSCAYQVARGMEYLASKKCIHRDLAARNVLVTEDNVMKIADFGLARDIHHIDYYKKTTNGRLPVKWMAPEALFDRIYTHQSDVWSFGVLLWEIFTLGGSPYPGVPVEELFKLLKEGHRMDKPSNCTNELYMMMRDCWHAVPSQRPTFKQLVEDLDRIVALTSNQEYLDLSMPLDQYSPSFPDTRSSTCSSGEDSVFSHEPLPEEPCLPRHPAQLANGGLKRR
Procedure, shortened: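 Compound is dispensed first, then FGFR1-transfected Ba/F3 cells are added at 20000 per well in phenol red-free RPMI-1640 containing 10% FBS. After 24 h at 37 °C, Alamar Blue is added for 4 h and fluorescence is measured at 540/590 nm.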

[6] = test system: Ba/F3-FGFR3-transfected cells; experiment: Ba/F3-FGFR3 (plus IL3) cellular proliferation assay, counterscreen with 10 ng/ml murine IL3; type: cell-based; conditions: read-out: BAF3-FGFR3 (PLUS IL3) pIC50 (converted)
Procedure, shortened: as §1

[7] = target: FGFR4 (h) (Homo sapiens, UniProt P22455); experiment: FGFR4 (enzymatic assay), TR-FRET; type: biochemical; conditions: FGFR 4 pIC50, enzymatic assay
FGFR4 (h), sequence (P22455 22-802): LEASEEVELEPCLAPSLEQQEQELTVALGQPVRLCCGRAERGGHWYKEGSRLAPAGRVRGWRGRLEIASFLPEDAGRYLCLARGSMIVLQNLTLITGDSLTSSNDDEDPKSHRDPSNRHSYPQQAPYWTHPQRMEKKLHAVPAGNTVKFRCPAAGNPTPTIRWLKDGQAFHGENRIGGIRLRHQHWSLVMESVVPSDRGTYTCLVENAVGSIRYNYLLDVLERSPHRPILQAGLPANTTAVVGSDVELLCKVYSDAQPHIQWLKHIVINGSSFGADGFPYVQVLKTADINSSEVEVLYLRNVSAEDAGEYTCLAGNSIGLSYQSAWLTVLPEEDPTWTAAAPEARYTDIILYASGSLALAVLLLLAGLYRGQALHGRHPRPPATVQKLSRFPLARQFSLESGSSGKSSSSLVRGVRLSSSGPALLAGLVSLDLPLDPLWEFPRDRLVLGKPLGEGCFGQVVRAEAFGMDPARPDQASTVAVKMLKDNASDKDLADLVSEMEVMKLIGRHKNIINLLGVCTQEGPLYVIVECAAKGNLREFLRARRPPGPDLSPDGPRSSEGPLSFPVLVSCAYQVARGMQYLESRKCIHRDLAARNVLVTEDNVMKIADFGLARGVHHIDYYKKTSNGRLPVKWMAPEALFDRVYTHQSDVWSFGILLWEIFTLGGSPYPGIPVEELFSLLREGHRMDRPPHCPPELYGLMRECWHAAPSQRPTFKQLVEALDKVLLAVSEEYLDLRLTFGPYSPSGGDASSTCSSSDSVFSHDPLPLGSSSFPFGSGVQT

[8] = plus IL3 (10 ng/ml murine IL3, counterscreen)
[9] = average values if tested multiple times

T1 sequence (P22607 whole entry, change not shown): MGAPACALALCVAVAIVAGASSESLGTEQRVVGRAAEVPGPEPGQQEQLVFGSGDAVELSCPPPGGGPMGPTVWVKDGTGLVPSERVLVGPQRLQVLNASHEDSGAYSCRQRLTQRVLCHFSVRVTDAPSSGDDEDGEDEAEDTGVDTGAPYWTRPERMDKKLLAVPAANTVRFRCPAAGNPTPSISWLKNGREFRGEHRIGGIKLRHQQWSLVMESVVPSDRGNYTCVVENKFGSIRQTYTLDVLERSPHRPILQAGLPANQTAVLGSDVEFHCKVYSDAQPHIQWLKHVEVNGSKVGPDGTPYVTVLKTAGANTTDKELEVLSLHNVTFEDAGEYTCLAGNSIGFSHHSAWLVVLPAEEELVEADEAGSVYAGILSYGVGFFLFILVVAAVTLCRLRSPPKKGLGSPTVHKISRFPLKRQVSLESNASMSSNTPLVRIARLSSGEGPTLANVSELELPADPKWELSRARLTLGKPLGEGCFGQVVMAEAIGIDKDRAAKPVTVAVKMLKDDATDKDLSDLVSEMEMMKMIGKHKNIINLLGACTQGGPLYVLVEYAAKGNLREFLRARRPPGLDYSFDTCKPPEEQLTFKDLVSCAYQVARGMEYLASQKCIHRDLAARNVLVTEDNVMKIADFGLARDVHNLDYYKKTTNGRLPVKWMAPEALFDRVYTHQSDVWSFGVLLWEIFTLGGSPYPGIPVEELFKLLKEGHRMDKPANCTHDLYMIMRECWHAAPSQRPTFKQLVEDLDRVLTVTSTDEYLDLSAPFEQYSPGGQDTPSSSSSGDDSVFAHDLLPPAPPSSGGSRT

Structure (SMILES)	BAF3-FGFR3 (MIN IL3) pIC50 [1]	BAF3-KDR (MIN IL3) pIC50 [2]	IC50 [3, 8]	IC50 [4, 9]	BAF3-FGFR1 (MIN IL3) pIC50 [5]	IC50 [6, 8]	IC50 [7, 9]	IC50 [3]	IC50 [6]	IC50 [4]	IC50 [7]
COc1cc(OC)c(F)c(N(Cc2cnccn2)c2ccc3ncc(-c4cnn(C)c4)nc3n2)c1F [Compound 10]	7.85	6.2	> 10000 nM	35.5 nM	8.1	> 10000 nM	100 nM				
COc1cc(OC)cc(N(Cc2nc[nH]n2)c2ccc3ncc(-c4cnn(C)c4)nc3n2)c1 [Compound 71]	7.71	6.03		1.55 nM	7.49		1.62 nM	> 10000 nM	> 10000 nM		
COc1cc(OC)c(F)c(N(Cc2c[nH]cn2)c2ccc3ncc(-c4cnn(C)c4)nc3n2)c1 [Compound 41]	8.08	6.70	> 10000 nM	1.32 nM	7.99	> 10000 nM	0.759 nM				
CNCCN(c1ccc2ncc(-c3cnn(C)c3)nc2n1)c1c(F)c(O)cc(OC)c1F [Compound 122]	6.09	<5	> 10000 nM		6.74	> 10000 nM				3.31 nM	9.55 nM
COc1cc(OC)c(F)c(N(CC2CCC(=O)N2)c2ccc3ncc(-c4cnn(C)c4)nc3n2)c1F (stereo not shown) [Compound 192]	7.78	6.11	> 10000 nM	2.51 nM	7.73	> 10000 nM	2.09 nM				
COc1cc(OC)c(F)c(N(CC(O)COC(C)C)c2ccc3ncc(-c4cnn(C)c4)nc3n2)c1 (single isomer, unassigned) [Compound 75]	7.75	6.16	> 10000 nM	2.63 nM	7.76	> 10000 nM	2.24 nM				
CNCCn1/c(=N/c2c(F)cccc2F)ccc2ncc(-c3cnn(C)c3)nc21 [Compound 44]	<5	<5	> 10000 nM	219 nM	5.12	> 10000 nM	2820 nM				
COc1cc(OC)cc(N(CCCN2CCCC2=O)c2ccc3ncc(-c4cnn(C)c4)nc3n2)c1 [Compound 134]	~6.64	5.20	> 10000 nM		6.43	> 10000 nM				3.09 nM	11.7 nM
COc1cc(/N=c2\ccc3ncc(-c4cnn(C)c4)nc3n2CCCN2CCCC2=O)c(F)c(OC)c1 [Compound 119]	~8.07	~6.52	> 3980 nM		~7.92	> 3980 nM				1.86 nM	1 nM
COc1ccc(Cl)c(/N=c2\ccc3ncc(-c4cnn(C)c4)nc3n2CC2CCC(=O)N2)c1Cl (stereo not shown) [Compound 92]	~5.61	<5	> 10000 nM	30.2 nM	<5	> 10000 nM	562 nM				
COc1cc(OC)c(F)c(N(CC2COC(=O)N2)c2ccc3ncc(-c4cnn(C)c4)nc3n2)c1 (single isomer, unassigned) [Compound 111]	7.58	5.61	> 10000 nM	2 nM	7.79	> 10000 nM	1.58 nM				
COc1cc(OC)c(F)c(/N=c2\ccc3ncc(-c4cnn(C)c4)nc3n2CC(O)COC(C)C)c1F (stereo not shown) [Compound 64]	8.12	6.31	> 10000 nM	1.62 nM	8.40	> 10000 nM	1 nM				
COc1cc(OC)c(F)c(N(CC2CCC(=O)N2)c2ccc3ncc(-c4cnn(C)c4)nc3n2)c1 (stereo not shown) [Compound 46]	7.42	5.35	> 10000 nM	2.45 nM	7.33	> 10000 nM	3.89 nM				
CNCCN(c1ccc2ncc(-c3cnn(C)c3)nc2n1)c1c(F)c(OC)cc(OC)c1F [Compound 3]	~8.04	6.48	> 10000 nM	3.09 nM	8.38	> 10000 nM	6.46 nM				
CNCCN(c1ccc2ncc(-c3cnn(C)c3)nc2n1)c1cc(OC)cc(OC)c1F [Compound 39]	~7.61	~6.19		5.37 nM	7.97		11 nM	> 10000 nM	> 10000 nM		
COc1cc(OC)c(F)c(N(CC(O)COC(C)C)c2ccc3ncc(-c4cnn(C)c4)nc3n2)c1F (stereo not shown) [Compound 63]	7.97	6.58	> 10000 nM	6.17 nM	7.90	> 10000 nM	6.03 nM				
Cn1cc(-c2cnc3ccc(N(Cc4ncc[nH]4)c4cc(F)cc(F)c4)nc3n2)cn1 [Compound 27]	~6.54	<5	> 10000 nM	6.61 nM	6.14	> 10000 nM	11.2 nM				
COc1cc(OC)c(F)c(N(CCNC(C)C)c2ccc3ncc(-c4cnn(C)c4)nc3n2)c1F [Compound 5]	8.3	6.35	> 10000 nM	3.98 nM	8.7	> 10000 nM	6.31 nM				
COc1cc(OC)c(F)c(/N=c2\ccc3ncc(-c4cnn(C)c4)nc3n2CCCN2CCCC2=O)c1F [Compound 55]	8.19	7.13	> 10000 nM	1.26 nM	8.12	> 10000 nM	0.447 nM				
